Literature values in PubChem BioAssay AID1259409 (Chemical Carcinogenesis Research Information System (CCRIS), 2018).

Tested on: rodent chemically induced tumor inhibition, incidence and multiplicity
Assay: CCRIS tumor inhibitor studies
Conditions: Carcinogen: N-METHYL-N-NITROSOUREA, 684-93-5, Route [Inhibitor]: ORAL, Promoter: NONE USED

For CC1=C(/C=C/C(C)=C/C=C/C(C)=C\C(=O)O)C(C)(C)CCC1, the “tumour outcome (control, treated, inhibition, significance)” value (Dose [Inhibitor]: 25 MG/KG DAILY IN DIET STARTING 1 D AFTER LAST CARCINOGEN INJECTION AND CONTINUING FOR 256 D (STUDY DURATION: 285 D), Species: RAT, Strain/Sex: WISTAR-LEWIS/FEMALE, Target Tissue: Type of Lesion: URINARY BLADDER: PAPILLARY UROTHELIAL TUMOR, Dose [Carcinogen]: 1.5 MG IN 0.15 ML SALINE INJECTED INTO A SURGICALLY EXPOSED BLADDER 1/2 WK FOR A TOTAL OF 3 INJECTIONS) is listed as 8/30 (27%), 2/23 (9%), 67%, p<0.05, the “tumour outcome (control, treated, inhibition, significance)” value (Dose [Inhibitor]: 120 MG/KG DIET DAILY STARTING 1 WK AFTER LAST CARCINOGEN TREATMENT AND CONTINUING FOR 6 MO (STUDY DURATION: 9 MO), Species: HAMSTER, Strain/Sex: SYRIAN/MALE, Target Tissue: Type of Lesion: TRACHEA: BENIGN EPITHELIAL NEOPLASM, Dose [Carcinogen]: 0.5% IN 1 ML PHOSPHATE-BUFFERED SALINE 1/WK FOR 12 WK) is listed as 6/63 (10%), 13/61 (21%), -110%, not significant and the “tumour outcome (control, treated, inhibition, significance)” value (Dose [Inhibitor]: 120 MG/KG DIET DAILY STARTING 1 WK AFTER LAST CARCINOGEN TREATMENT AND CONTINUING FOR 6 MO (STUDY DURATION: 9 MO), Species: HAMSTER, Strain/Sex: SYRIAN/MALE, Target Tissue: Type of Lesion: TRACHEA: CARCINOMA, Dose [Carcinogen]: 0.5% IN 1 ML PHOSPHATE-BUFFERED SALINE 1/WK FOR 12 WK) is listed as 4/63 (6%), 12/61 (20%), -233%, p<0.05. The “tumour outcome (control, treated, inhibition, significance)” value (Dose [Inhibitor]: 120 MG/KG DIET DAILY STARTING 1 WK AFTER LAST CARCINOGEN TREATMENT AND CONTINUING FOR 6 MO (STUDY DURATION: 9 MO), Species: HAMSTER, Strain/Sex: SYRIAN/MALE, Target Tissue: Type of Lesion: TRACHEA: EPITHELIAL NEOPLASM, Dose [Carcinogen]: 0.5% IN 1 ML PHOSPHATE-BUFFERED SALINE 1/WK FOR 12 WK) was 10/63 (16%), 22/61 (36%), -125%, p<0.05, the “tumour outcome (control, treated, inhibition, significance)” value (Dose [Inhibitor]: 120 MG/KG IN DIET DAILY FOR 6 MO STARTING 1 WK AFTER FINAL CARCINOGEN DOSE (STUDY DURATION: 9 MO), Species: HAMSTER, Strain/Sex: SYRIAN/MALE, Target Tissue: Type of Lesion: TRACHEA: BENIGN EPITHELIAL NEOPLASM, Dose [Carcinogen]: 0.5% SOLUTION FOR 5 SECOND EXPOSURE 1/WK FOR 12 WK) was 6/63 (10%), 13/61 (21%), -110%, not significant and the “tumour outcome (control, treated, inhibition, significance)” value (Dose [Inhibitor]: 120 MG/KG IN DIET DAILY FOR 6 MO STARTING 1 WK AFTER FINAL CARCINOGEN DOSE (STUDY DURATION: 9 MO), Species: HAMSTER, Strain/Sex: SYRIAN/MALE, Target Tissue: Type of Lesion: TRACHEA: EPITHELIAL NEOPLASM, Dose [Carcinogen]: 0.5% SOLUTION FOR 5 SECOND EXPOSURE 1/WK FOR 12 WK) was 10/63 (16%), 22/61 (36%), -125%, p<0.05. The “tumour outcome (control, treated, inhibition, significance)” value (Dose [Inhibitor]: 120 OR 300 MG/KG DIET DAILY STARTING ON THE DAY OF THE FIRST INSTILLATION OF CARCINOGEN OR 1 D AFTER THE LAST CARCINOGEN, Species: RAT, Strain/Sex: WISTAR-LEWIS/FEMALE, Target Tissue: Type of Lesion: URINARY BLADDER: CARCINOMA, Dose [Carcinogen]: 1.5 MG IN 0.15 ML OF 0.9% NACL SOLUTION INSTILLED DIRECTLY INTO THE URINARY BLADDER 1/2 WK FOR A TOTAL OF 3 DOSES) was 10/23 (43%), 27/87 (31%), 28%, p 0.11, the “tumour outcome (control, treated, inhibition, significance)” value (Dose [Inhibitor]: 120 OR 300 MG/KG DIET DAILY STARTING ON THE DAY OF THE FIRST INSTILLATION OF CARCINOGEN OR 1 D AFTER THE LAST CARCINOGEN, Species: RAT, Strain/Sex: WISTAR-LEWIS/FEMALE, Target Tissue: Type of Lesion: URINARY BLADDER: NEOPLASM, Dose [Carcinogen]: 1.5 MG IN 0.15 ML OF 0.9% NACL SOLUTION INSTILLED DIRECTLY INTO THE URINARY BLADDER 1/2 WK FOR A TOTAL OF 3 DOSES) was 13/23 (57%), 35/87 (40%), 30%, p 0.08 and the “tumour outcome (control, treated, inhibition, significance)” value (Dose [Inhibitor]: 120 OR 300 MG/KG DIET DAILY STARTING ON THE DAY OF THE FIRST INSTILLATION OF CARCINOGEN OR 1 D AFTER THE LAST CARCINOGEN, Species: RAT, Strain/Sex: WISTAR-LEWIS/FEMALE, Target Tissue: Type of Lesion: URINARY BLADDER: SQUAMOUS CELL CARCINOMA, Dose [Carcinogen]: 1.5 MG IN 0.15 ML OF 0.9% NACL SOLUTION INSTILLED DIRECTLY INTO THE URINARY BLADDER 1/2 WK FOR A TOTAL OF 3 DOSES) was 4/23 (17%), 8/87 (9%), 47%, p 0.11. The “tumour outcome (control, treated, inhibition, significance)” value (Dose [Inhibitor]: 120 OR 300 MG/KG DIET DAILY STARTING ON THE DAY OF THE FIRST INSTILLATION OF CARCINOGEN OR 1 D AFTER THE LAST CARCINOGEN, Species: RAT, Strain/Sex: WISTAR-LEWIS/FEMALE, Target Tissue: Type of Lesion: URINARY BLADDER: TRANSITIONAL CELL CARCINOMA, Dose [Carcinogen]: 1.5 MG IN 0.15 ML OF 0.9% NACL SOLUTION INSTILLED DIRECTLY INTO THE URINARY BLADDER 1/2 WK FOR A TOTAL OF 3 DOSES) was 7/23 (30%), 23/87 (26%), 13%, p 0.23.
